In patent publication US20080176826A1, “Pyridine Compounds For Combating Arthropod Pests and Nematodes” (priority 2005, published 2008):

Legend:
[1] = tested on: Green peach aphid (Myzus persicae), mixed life stages; assay: Green peach aphid foliar dip test, mortality; assay type: in vivo; details: 120 h, infested bell pepper leaves dipped 3 seconds, determined after 5 days, read-out: mortality of green peach aphid in comparison with untreated controls
Method: (§1) The active compounds were formulated in a mixture of 50 vol.-% acetone: 50 vol.-% water. A nonionic surfactant (Kinetic®) was included in the solution at a volume of 0.01% v/v.
(§2) In the following tests, the formulated solutions of the active compounds were diluted to an active ingredient concentration of 300 ppm and the diluted solutions were applied in the below mentioned tests.
Bell pepper plants at the first true-leaf stage were infested prior to treatment by placing heavily infested leaves from the main aphid colony on top of the treatment plants. The aphids were allowed to transfer overnight to accomplish an infestation of 30-40 aphids per plant and the host leaves were removed. The infested leaves of the test plants were then dipped and agitated in the test solution for 3 seconds and allowed to dry in a fume hood. Test plants were maintained under fluorescent lighting in a 24-hr photoperiod at 25° C. and 20-40% relative humidity. Aphid mortality on the treated plants, relative to mortality on untreated check plants, was determined after 5 days. Test compound A provided 85% mortality while test compounds B and C each provided 100% mortality of green peach aphid (Myzus persicae, mixed life stages) in comparison with untreated controls, when applied at 300 ppm. Test Compounds D, E, F, G and H each provided >85% mortality of green peach aphid (Myzus persicae, mixed life stages) in comparison with untreated controls, when applied at 300 ppm.

[2] = tested on: Cotton aphid (Aphis gossypii), mixed life stages; assay: Cotton aphid foliar dip test, mortality; assay type: in vivo; details: 120 h, infested cotton cotyledons dipped 3 seconds, determined after 5 days, read-out: mortality of cotton aphid in comparison with untreated controls
Method: as §1, §2
Cotton plants at the cotyledon stage were infested prior to treatment by placing a heavily infested leaf from the main aphid colony on top of each cotyledon. The aphids were allowed to transfer overnight and the host leaf was removed. The infested cotyledons were then dipped and agitated in the test solution for 3 seconds and allowed to dry in a fume hood. Test plants were maintained under fluorescent lighting in a 24-hr photoperiod at 25° C. and 20-40% relative humidity. Aphid mortality on the treated plants, relative to mortality on untreated check plants, was determined after 5 days. In this test, test compounds B, C and F at 300 ppm provided 100%, and 86-99% mortality, respectively, of cotton aphid (Aphis gossypii, mixed life stages) in comparison with untreated controls. Test compound A at 300 ppm provided 75-85% mortality, respectively, of cotton aphid (Aphis gossypii, mixed life stages) in comparison with untreated controls.

What does the source list for `Clc1cncc(OC[C@H]2CCCN2)c1` [Compound A, R-3-Chloro-5-(pyrrolidin-2-ylmethyloxy)-pyridine]?
mortality at 300 ppm [1]: 85%; mortality at 300 ppm [2]: 75 to 85%

How did the mortality at 300 ppm [1] turn out when `CC(Oc1cncc(Cl)c1)C1CCCN1` (stereo not drawn) [Compound G, 3-Chloro-5-(1-pyrrolidin-2-ylethoxy)-pyridine] was run?
Its mortality at 300 ppm is greater than 85%.

What does the source list for `CC(Oc1ccc(Cl)nc1)C1CCCN1` (stereo not drawn) [Compound F, 2-Chloro-5-(1-pyrrolidin-2-ylethoxy)-pyridine]?
mortality at 300 ppm [1]: > 85%; mortality at 300 ppm [2]: 86 to 99%

For `C[C@@H](Oc1cncc(Cl)c1)C1CCN1` (stereo partly drawn) [Compound H, 2S-3-(1-Azetidin-2-yl-ethoxy)-5-chloro-pyridine], which mortality at 300 ppm [1] is on record?
The mortality at 300 ppm was greater than 85%.

How did the mortality at 300 ppm [1] turn out when `CC(Oc1ccc(Cl)nc1)C1CCCN1OC(=O)c1ccccc1` (racemic) [Compound E, Benzoic acid 2-[1-(6-chloropyridin-3-yloxy)-ethyl]-pyrrolidin-1-yl ester] was run?
The mortality at 300 ppm was greater than 85%.

Which mortality at 300 ppm [1] does the source give for `CC(C)(C)C(=O)ON1CCCC1COc1cncc(Cl)c1` (stereo not drawn) [Compound B, 2,2-Dimethyl-propionic acid 2-(5-chloropyridin-3-yloxymethyl)pyrrolidin-1-yl ester] here?
The mortality at 300 ppm was 100%.

And the mortality at 300 ppm [2]?
The mortality at 300 ppm was 100%.
